Measured values taken from patent publication US20190054054A1, “Methods reducing or preventing oxidation of high density lipoprotein (HDL)” (Amarin Pharmaceuticals Ireland Limited, priority 2017, published 2019).
Values joined by “and” are separate entries in the source; they are usually repeats but may differ in a detail not shown here. Identical values can stand only once.

Experiments:
[1] = Membrane cholesterol domain peak intensity, x-ray diffraction of POPC/cholesterol membranes (Example 9); details: 1.5:1 C/P mole ratio; for % change Vs control / Relative Cholesterol Domain Preak Intensity: drug-to-phospholipid mole ratio 1:30; for Relative Cholesterol Domain Preak Intensity: POPC and cholesterol
Protocol: The fatty acid stock solutions were stored at −20° C. until use. […] Samples were shell-dried under nitrogen gas and placed under vacuum for 3 hours to remove residual solvent at room temperature. After desiccation, each sample was resuspended in saline buffer (0.5 mM HEPES, 154 mM NaCl, pH 7.3) to yield a final phospholipid concentration of 2.5 mg/mL. Lipid suspensions were then vortexed for 3 minutes at ambient temperature to form MLVs. Membrane lipid vesicles were oriented for x-ray diffraction analysis as described by others (e.g., Herbette et al., Biophys. […] Briefly, a 100 μL aliquot of each MLV preparation (containing 250 μg MLV) was transferred to a Lucite® sedimentation cell fitted with an aluminum foil substrate designed to collect MLVs into a single membrane pellet upon centrifugation. […] After centrifugal orientation, sample supernatants were aspirated and aluminum foil substrates, each supporting a single membrane pellet, were removed from the sedimentation cells. Sample pellets were dried for 5-10 minutes at ambient conditions, mounted onto curved glass supports, and placed in hermetically-sealed, brass or glass containers (for immediate analysis or temporary storage, respectively). All x-ray diffraction experiments were conducted at 20° C., 74% relative humidity. The latter was established by exposing membrane samples to saturated solutions of L-(+)-tartaric acid (K2C4H4O6.½H2O) for at least 1 hour prior to experimental analysis. Oriented membrane samples were aligned at grazing incidence with respect to a collimated, mono-chromatic CuKα x-ray beam (Kα1 and Kα2 unresolved; λ=1.54 Å) produced by a Rigaku Rotaflex RU-200, high-brilliance microfocus generator (Rigaku-MSC, The Woodlands, Tex.) as previously described (Mason et al., Biophys. J., vol. 55(4), pages 769-778 (1989)). The samples were initially subjected to x-ray diffraction analysis at least 12 hours after formation of the membrane pellets and retested for up to several days. Analytical x-rays were generated by electron bombardment of a rotating copper anode and are filtered through a thin nickel foil to provide monochromatic radiation (λ=1.54 Å). Collimation of the x-ray beam was achieved using a single Franks mirror. Diffraction data were collected on a one-dimensional, position-sensitive electron detector (Hecus X-ray Systems, Graz, Austria) at a sample-to-detector distance of 150 mm from the sample site. The d-space for any given membrane multi bilayer is a measurement of the unit cell periodicity of the membrane lipid bilayer (e.g., the distance from the center of one lipid bilayer to the next including surface hydration), and is calculated from Bragg's Law, h λ=2 d sin θ, where h is the diffraction order, λ is the wavelength of the x-ray radiation (1.54 Å), d is the membrane lipid bilayer unit cell periodicity, and θ is the Bragg angle equal to one-half the angle between the incident beam and scattered beam. […] Routines written in Origin 8.6 (OriginLab Corporation, Northampton, Mass.) were used to determine total peak area (associated with all diffraction peaks in a given pattern) against which the second-order cholesterol domain peak was normalized. The raw data collected in this study was normalized using internal. Data were presented as mean+S.E.M. for (N) separate samples or treatment groups. Differences between groups were analyzed using the two-tailed, Student's t-test (for comparisons between only two groups) or ANOVA followed by Dunnett or Student-Newman-Keuls multiple comparisons post-hoc analysis (for comparisons between three or more groups). Alpha error was set to 0.05 in this study.

HUVECs exposed to oxLDL = assay: NO and ONOO^− release from HUVECs exposed to oxLDL, nanosensors (Example 8); assay type: cell-based, human; details: oxLDL 20 min, then treatment for 1 hour; EPA 10 μM, ATM 1.0 μM
Protocol: Human umbilical vein endothelial cells (HUVECs) were isolated into primary cultures from female donors by Clonetics (San Diego, Calif.) and purchased as proliferating cells. All cell culture donors were healthy, with no pregnancy or prenatal complications. […] The confluent cells (4 to 5×10^5 cells/35 mm dish) were placed with minimum essential medium containing 3 mM L-arginine and 0.1 mM BH4 [(6R)-5,6,7,8-tetrahydrobiopterin]. Before experimental use, the cells (from second or third passage) were rinsed twice with Tyrode-HEPES buffer with 1.8 mM CaCl2).
The omega-3 fatty acids (O3FAs) cis-5,8,11,14,17-eicosapentaenoic acid (EPA) and docosahexaenoic acid (DHA) were purchased from Sigma-Aldrich (St. Louis, Mo.) and prepared initially at 11 mM in redistilled ethanol. Primary and secondary O3FA stock solutions were prepared and stored under argon at −20° C.
The oxLDL causes eNOS uncoupling and endothelial dysfunction to reproduce disease-like conditions. 25 Venous blood from healthy normolipidemic volunteers was collected into Na-EDTA (1 mg/mL blood) vacuum tubes after a 12-hour fast. Plasma was immediately separated by centrifugation at 3,000 g for 10 minutes at 4° C.
Tris-NaCl buffer was added to the dialyzed LDL to adjust the protein concentration to 30 mg/mL. A 1-mL aliquot of 20 μM CuSO4 was added to 1 mL of dialyzed normal LDL.
Oxidation was monitored by the use of measurements of TBARS. Briefly, LDL was incubated with thiobarbituric acid (0.5 wt/vol, in H2SO4, 50 mM) for 30 minutes at 100° C. […] TBARS concentration was determined as malondialdehyde (MDA) equivalents with the use of an MDA standard curve.
Concurrent measurements of NO and ONOO^− were performed with tandem electrochemical nanosensors combined into one working unit with a total diameter of 200-400 nm. Their design was based on previously developed and chemically modified carbon-fiber technology. Each of the nanosensors was made by depositing a sensing material on the tip of a carbon fiber (length 4 to 5 μm, diameter 100-200 nm). The fibers were sealed with nonconductive epoxy and electrically connected to copper wires with conductive silver epoxy. Conductive films of polymeric Ni(II) tetrakis (3-methoxy-4-hydroxyphenyl) porphyrin and Mn(III) [2.2] paracyclophanylporphyrin were used for the NO and ONOO^− sensors, respectively.
The amperometric method (with a response time of 0.1 ms) provides a quantitative signal (current) that is directly proportional to changes (from basal levels) in NO or ONOO^− concentration. Amperometric measurements were performed with a Gamry III double-channel potentiostat. Basal NO or ONOO^− levels were measured by differential pulse voltammetry in separate experiments.
All measurements of NO and ONOO^− were performed on intact endothelial cells. The NO/ONOO^− nanosensor module was positioned 5±2 μm from the surface of each individual endothelial cell using a computer-controlled M3301 micromanipulator (x-y-z resolution of 0.2 μm) and microscope (both from World Precision Instruments, Berlin, Germany) fitted with a CD camera.
Endothelial basal media was used for all the treatments. Controls were supplied with an equivalent volume of endothelial basal media.
Data are presented as mean±S.D. for (N) separate samples or experiments. Differences between groups were analyzed using the two-tailed, Student t-test (for comparisons between only two groups) or ANOVA followed by Student-Newman-Keuls multiple comparisons post-hoc analysis (for comparisons between three or more groups). Only differences with probability values less than 0.05 were considered significant.

HUVECs = assay: NO release from HUVECs incubated with agent-treated oxidized sdLDL (Example 12); assay type: cell-based, human; details: oxidized sdLDL pretreated with agent at 10.0 μM
Protocol: All samples, with the exception of non-oxidized sdLDL controls, were subjected to copper-induced oxidation for 1 hour. Human umbilical vein endothelial cells (HUVECs) were incubated with the various sdLDL samples, stimulated with calcium, and monitored for nitric oxide (NO) and peroxynitrite (ONOO^−) release using nanosensor technology.

With `CCCCC/C=C\C/C=C\C/C=C\C/C=C\CCCC(=O)O` [AA, arachidonic acid] the “% change Vs control” value [1] was −45.2% and −46.8 ± 15.2% and the “Relative Cholesterol Domain Preak Intensity” value [1] was 22.5 ± 4.3.

With `CC/C=C\C/C=C\C/C=C\CCCCCCCC(=O)O` [ALA, α-linolenic acid] the “% change Vs control” value [1] was −46.8% and −45.2 ± 11.3% and the “Relative Cholesterol Domain Preak Intensity” value [1] was 23.2 ± 0.6.

In the case of `CC1(C)[C@@H](O[C@H]2O[C@H](C(=O)O)[C@@H](O)[C@H](O)[C@H]2O[C@@H]2O[C@H](C(=O)O)[C@@H](O)[C@H](O)[C@H]2O)CC[C@]2(C)[C@H]3C(=O)C=C4[C@@H]5C[C@@](C)(C(=O)O)CC[C@]5(C)CC[C@@]4(C)[C@]3(C)CC[C@@H]12` [Glyc, glycyrrhizin], the “reduction in cholesterol domain peaks as compared to vehicle treatment” value ([1]; 1:30) was 54.9%, the “% change Vs control” value [1] was −54.9 ± 12.3% and the “Relative Cholesterol Domain Preak Intensity” value [1] was 19.1 ± 1.2. The “Relative Cholesterol Domain Preak Intensity” value ([1]; listed as glycyrrhizin) was 19.1±1.2.

For `CC(C)OC(=O)C(C)(C)Oc1ccc(C(=O)c2ccc(Cl)cc2)cc1` [fenofibrate], the “ONOO^−” value (HUVECs exposed to oxLDL) was 299 ± 24 and the “reduction of NO release as compared to vehicle-treated, oxidized sdLDL” value (HUVECs) was 21%.
